Data: PubChem BioAssay AID248 (DTP/NCI, 2004)
Several values for one entry are separate records, joined by “and”; a condition that tells them apart may be missing. Equal values may be shown once. Inconclusive results and toxic doses are left out. Rule as the data show it: active = T/C of 150% or more; inactive = T/C below 125%.

Tested on: L1210 leukemia ip in BDF1 mice, survival T/C
Assay: NCI In Vivo Anticancer Drug Screen. Data for tumor model L1210 Leukemia (intraperitoneal) in B6D2F1 (BDF1) mice
Details: endpoint: mean survival time, higher = longer survival
Summary of the method: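 Ratio derived from survival: compound-dosed mice over vehicle-dosed mice, all bearing a transplantable tumor.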

[1] = dose: 25.0 mg/kg/injection, schedule: Q04DX003 (ip), vehicle: saline
[2] = dose: 50.0 mg/kg/injection, schedule: Q04DX003 (ip), vehicle: saline
[3] = dose: 100.0 mg/kg/injection, schedule: Q04DX003 (ip), vehicle: saline
[4] = dose: 100.0 mg/kg/injection, schedule: Q01DX009 (ip), vehicle: saline with Tween-80
[5] = dose: 100.0 mg/kg/injection, schedule: Q04DX003 (ip), vehicle: saline with Tween-80
[6] = dose: 200.0 mg/kg/injection, schedule: Q01DX009 (ip), vehicle: saline with Tween-80
[7] = dose: 200.0 mg/kg/injection, schedule: Q04DX003 (ip), vehicle: saline with Tween-80
[8] = dose: 400.0 mg/kg/injection, schedule: Q01DX009 (ip), vehicle: saline with Tween-80
[9] = dose: 400.0 mg/kg/injection, schedule: Q04DX003 (ip), vehicle: saline with Tween-80
[10] = dose: 100.0 mg/kg/injection, schedule: Q04DX002 (ip), vehicle: Klucel (hydroxypropylcellulose) (HPC)
[11] = dose: 200.0 mg/kg/injection, schedule: Q04DX002 (ip), vehicle: Klucel (hydroxypropylcellulose) (HPC)
[12] = dose: 400.0 mg/kg/injection, schedule: Q04DX002 (ip), vehicle: Klucel (hydroxypropylcellulose) (HPC)
[13] = dose: 100.0 mg/kg/injection, schedule: Q01DX009 (ip), vehicle: Klucel (hydroxypropylcellulose) (HPC)
[14] = dose: 200.0 mg/kg/injection, schedule: Q01DX009 (ip), vehicle: Klucel (hydroxypropylcellulose) (HPC)
[15] = dose: 400.0 mg/kg/injection, schedule: Q01DX009 (ip), vehicle: Klucel (hydroxypropylcellulose) (HPC)
[16] = dose: 50.0 mg/kg/injection, schedule: Q04DX002 (ip), vehicle: Klucel (hydroxypropylcellulose) (HPC)
[17] = dose: 50.0 mg/kg/injection, schedule: Q01DX001 (ip), vehicle: saline
[18] = dose: 100.0 mg/kg/injection, schedule: Q01DX001 (ip), vehicle: saline
[19] = dose: 200.0 mg/kg/injection, schedule: Q01DX001 (ip), vehicle: saline
[20] = dose: 400.0 mg/kg/injection, schedule: Q01DX001 (ip), vehicle: saline
[21] = dose: 100.0 mg/kg/injection, schedule: Q01DX009 (ip), vehicle: water
[22] = dose: 100.0 mg/kg/injection, schedule: Q04DX003 (ip), vehicle: water
[23] = dose: 200.0 mg/kg/injection, schedule: Q01DX009 (ip), vehicle: water

Measured: T/C

N#CCCCN1CCCCCC1
inactive: dose: 25.0 mg/kg/injection, schedule: Q01DX009 (ip), vehicle: saline 98 % of control | [1] 101 % of control | dose: 50.0 mg/kg/injection, schedule: Q01DX009 (ip), vehicle: saline 93 % of control | [2] 101 % of control | [3] 101 % of control

Cc1ccc(OCc2c(COc3ccc(Cl)cc3)sc3ccc(Cl)cc23)cc1
inactive: dose: 12.5 mg/kg/injection, schedule: Q01DX009 (ip), vehicle: saline with Tween-80 97 % of control | dose: 25.0 mg/kg/injection, schedule: Q01DX009 (ip), vehicle: saline with Tween-80 95 % of control | dose: 25.0 mg/kg/injection, schedule: Q04DX003 (ip), vehicle: saline with Tween-80 87 % of control | dose: 50.0 mg/kg/injection, schedule: Q01DX009 (ip), vehicle: saline with Tween-80 101 % of control | dose: 50.0 mg/kg/injection, schedule: Q04DX003 (ip), vehicle: saline with Tween-80 87 % of control

O=C(O)CNC(=O)/C(=C\c1[nH]c(=O)[nH]c(=O)c1Br)NC(=O)c1ccccc1
inactive: [4] 92 % of control | [5] 104 % of control | [6] 91 % of control | [7] 104 % of control | [8] 96 % of control | [9] 107 % of control

CCC1(Br)OC1=O (stereo not given)
inactive: dose: 50.0 mg/kg/injection, schedule: Q01DX009 (ip), vehicle: acetone 100 % of control | dose: 100.0 mg/kg/injection, schedule: Q01DX009 (ip), vehicle: acetone 99 % of control | dose: 100.0 mg/kg/injection, schedule: Q04DX003 (ip), vehicle: acetone 97 % of control | dose: 200.0 mg/kg/injection, schedule: Q04DX003 (ip), vehicle: acetone 98 % of control

C=CCOC(=O)Nc1cccc2ccccc12
inactive: [10] 91 % of control | [11] 94 % of control | [12] 94 % of control

C=CCN(CC=C)C(=O)Nc1ccc(C(=O)N/N=C/c2cccc(OC)c2OC)cc1
inactive: [13] 103 % of control and 88 % of control | [10] 95 % of control and 105 % of control | [14] 100 % of control and 88 % of control | [11] 94 % of control and 101 % of control | [15] 95 % of control | [12] 97 % of control and 105 % of control

Cc1c([N+](=O)[O-])oc2ccc(Cl)cc12
inactive: [16] 93 % of control | [13] 100 % of control | [10] 87 % of control | [14] 91 % of control | [11] 93 % of control | [15] 95 % of control

CSc1nc(SC)c2c(ncn2C2OC(CO)C(O)C2O)n1 (stereo not given)
inactive: [17] 111 % of control | [18] 102 % of control | [19] 104 % of control

N#Cc1ccccc1NN=Nc1ccccc1-c1nc(N)nc(N)n1
inactive: [1] 97 % of control | [2] 103 % of control

O=C(CCCC(=O)N/N=C/c1ccccc1O)N/N=C\c1ccccc1O
inactive: [17] 87 % of control | [18] 90 % of control | [20] 90 % of control

Ic1c2ccccc2cc2ccccc12
inactive: [16] 95 % of control and 123 % of control | [10] 103 % of control and 86 % of control | [11] 108 % of control and 92 % of control | [12] 92 % of control

CCC(=O)c1cc2c(c3c1CCCC3)CCCC2
inactive: dose: 200.0 mg/kg/injection, schedule: Q01DX009 (ip), vehicle: other 90 % of control

CC(C)n1cc2cc([N+](=O)[O-])ccc2n1
inactive: dose: 50.0 mg/kg/injection, schedule: Q01DX009 (ip), vehicle: Klucel (hydroxypropylcellulose) (HPC) 91 % of control | [13] 97 % of control | [14] 97 % of control

COc1ccc(CC2(C#N)c3ccccc3C=CN2C(=O)c2ccccc2)c([N+](=O)[O-])c1OC (stereo not given)
inactive: dose: 50.0 mg/kg/injection, schedule: Q04DX002 (ip), vehicle: saline with Tween-80 97 % of control | dose: 100.0 mg/kg/injection, schedule: Q04DX002 (ip), vehicle: saline with Tween-80 87 % of control | dose: 200.0 mg/kg/injection, schedule: Q04DX002 (ip), vehicle: saline with Tween-80 97 % of control

O=c1c2ccccc2c(-c2ccccc2)nn1Cc1ccccc1
inactive: [4] 93 % of control | [6] 102 % of control | [8] 104 % of control

O=C(/C(=C\c1ccccc1)Oc1ccc(S[N+](=O)[O-])cc1)c1ccccc1
inactive: dose: 100.0 mg/kg/injection, schedule: Q01DX001 (ip), vehicle: carboxymethylcellulose (CMC) 95 % of control | dose: 200.0 mg/kg/injection, schedule: Q01DX001 (ip), vehicle: carboxymethylcellulose (CMC) 92 % of control | dose: 400.0 mg/kg/injection, schedule: Q01DX001 (ip), vehicle: carboxymethylcellulose (CMC) 95 % of control

O=CNC1CCCCC1c1ccc(C2CCCCC2NC=O)cc1 (stereo not given)
inactive: [18] 97 % of control

NC(=O)NC(=O)C1C2C=CC(C2)C1C(=O)NC(N)=O (stereo not given)
inactive: [5] 100 % of control | [7] 100 % of control | [9] 91 % of control

O=C(/C=C/c1ccccc1)Nc1cc(Cl)ccc1Cl
inactive: [13] 110 % of control | dose: 100.0 mg/kg/injection, schedule: Q04DX003 (ip), vehicle: Klucel (hydroxypropylcellulose) (HPC) 97 % of control | [14] 114 % of control | dose: 200.0 mg/kg/injection, schedule: Q04DX003 (ip), vehicle: Klucel (hydroxypropylcellulose) (HPC) 89 % of control | [15] 96 % of control | dose: 400.0 mg/kg/injection, schedule: Q04DX003 (ip), vehicle: Klucel (hydroxypropylcellulose) (HPC) 94 % of control

CCOC(=O)C1C(CCCCO)CC(=O)CC1(C)C(N)=O (stereo not given)
inactive: [18] 97 % of control | [19] 91 % of control | [20] 95 % of control

CCOC(=O)c1ccc(NC(=O)Oc2ccccc2C(=O)OCc2ccccc2)cc1
inactive: [13] 98 % of control | [14] 95 % of control | [15] 96 % of control

CCC[CH2][Sn](=[O])[CH2]CCC
inactive: dose: 1.5 mg/kg/injection, schedule: Q01DX001 (ip), vehicle: saline with Tween-80 90 % of control | dose: 3.0 mg/kg/injection, schedule: Q01DX001 (ip), vehicle: saline with Tween-80 100 % of control | dose: 6.0 mg/kg/injection, schedule: Q01DX001 (ip), vehicle: saline with Tween-80 107 % of control

CS(=O)c1ncc2cnccn12 (stereo not given)
inactive: dose: 25.0 mg/kg/injection, schedule: Q01DX009 (ip), vehicle: water 100 % of control | [1] 107 % of control | dose: 50.0 mg/kg/injection, schedule: Q01DX009 (ip), vehicle: water 99 % of control | [2] 113 % of control | [21] 102 % of control and 103 % of control | [3] 107 % of control | [22] 110 % of control | [23] 98 % of control

COC(=O)C(C)C1CCC2C3=CC=C4CC(OC(C)=O)CCC4(C)C3CCC21C (stereo not given)
inactive: dose: 100.0 mg/kg/injection, schedule: Q01DX001 (ip), vehicle: saline with Tween-80 93 % of control | dose: 200.0 mg/kg/injection, schedule: Q01DX001 (ip), vehicle: saline with Tween-80 98 % of control | dose: 400.0 mg/kg/injection, schedule: Q01DX001 (ip), vehicle: saline with Tween-80 104 % of control

CCCC(C(N)=O)N(CCO)CCO (stereo not given)
inactive: dose: 100.0 mg/kg/injection, schedule: Q04DX002 (ip), vehicle: saline 90 % of control | dose: 200.0 mg/kg/injection, schedule: Q04DX002 (ip), vehicle: saline 90 % of control | dose: 400.0 mg/kg/injection, schedule: Q04DX002 (ip), vehicle: saline 90 % of control

C=C(Br)CNC(=O)Nc1cccc2c1CCCC2
inactive: [4] 94 % of control | [5] 86 % of control | [6] 97 % of control | [7] 86 % of control | [8] 92 % of control | [9] 88 % of control

CC1CN(Cc2ccccc2)CC(C)N1C(=O)c1ccccc1 (stereo not given)
inactive: [21] 95 % of control | [22] 109 % of control | [23] 93 % of control | dose: 200.0 mg/kg/injection, schedule: Q04DX003 (ip), vehicle: water 113 % of control | dose: 400.0 mg/kg/injection, schedule: Q01DX009 (ip), vehicle: water 104 % of control | dose: 400.0 mg/kg/injection, schedule: Q04DX003 (ip), vehicle: water 110 % of control
